In patent US12459951B2, “Compounds that interact with RAS superfamily proteins for treatment of cancers, inflammatory diseases, rasopathies, and fibrotic disease” (SHY Therapeutics, LLC, priority 2022, dated 2025):
Counter-ions that a name gives are not always drawn.

What was measured:
Erk1/2 phosphorylation = experiment: Erk1/2 Phosphorylation Assay (western blot), Panc-1; format: cell-based, human; conditions: at 10 μM, * = activation
Summary of the method: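 Phospho-Erk1/2 (Thr202/Tyr204) was detected by western blot in lysates of Panc-1 cells (KRas G12D). These had 6 h, 37° C exposure to 10 μM compound or a dilution series for IC50, in 0.3% DMSO. Cells were either starved overnight in 0.5% FBS with a 15-min 1.5 ng/ml EGF pulse, or kept unstimulated in 10% FBS.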

[1] = test system: MiaPaca-2 (expressing KRAS G12C mutant); experiment: Proliferation Assay (Cell Viability Assay); format: cell-based; conditions: Homo sapiens, MIA PaCa-2; read-out: Proliferation in MiaPaca-2: IC50
Summary of the method: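 After 2–4 days' exposure at 37 °C, 5% CO2 to a single 10 μM final concentration or a dilution series (IC50), percent proliferation inhibition was derived from CellTiter 96 Aqueous One viability readings. The medium contained 0.3% DMSO and 10% FBS. KRAS G12C MiaPaca-2 cells were plated at 2000–5000/well the day before.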

IL6 = experiment: IL-6 Quantification Assay (ELISA), LPS-stimulated RAW 264.7; format: cell-based; set-up: inhibition: dose or concentration left out as unconfirmed; conditions: Mus musculus, RAW264.7; read-out: IL-6: % inh.

Row | SMILES | IC50 [1] [µM] | % inh of Erk1/2 phosphorylation in Panc-1 (Erk1/2 phosphorylation) | inhibition (IL6) [%]
1 | COCC1CCN(c2nc(-c3nccn3C)nn3cc(-c4ccn(C(C)C)n4)c(C)c23)C1 (racemic) [Compound 2, rac 6-(1-Isopropyl-1H-pyrazol-3-yl)-4-(3-(methoxymethyl)pyrrolidin-1-yl)-5-methyl-2-(1-methyl-1H-imidazol-2-yl)pyrrolo[2,1-f][1,2,4]triazine] | > 1 | B (26-49% inhibition) | 1 to 24
2 | COC[C@@H]1CC[C@@H]1CNc1nc(-c2nccn2C)nn2cc(-c3ccn(C(C)C)n3)c(C)c12 (racemic) [Compound 3, rac 6-(1-Isopropyl-1H-pyrazol-3-yl)-N-(((1S,2R)-2-(methoxymethyl)cyclobutyl)methyl)-5-methyl-2-(1-methyl-1H-imidazol-2-yl)pyrrolo[2,1-f][1,2,4]triazin-4-amine] | > 1 | D (85-100% inhibition) | 50 to 74
3 | COC1CCCN(c2nc(-c3nccn3C)nn3cc(-c4ccn(C(C)C)n4)c(C)c23)C1 (racemic) [Compound 4, rac 6-(1-Isopropyl-1H-pyrazol-3-yl)-5-methyl-2-(1-methyl-1H-imidazol-2-yl)-4-(3-(oxo-γ6-methyl)piperidin-1-yl)pyrrolo[2,1-f][1,2,4]triazine] | > 1 | D (85-100% inhibition) | 75 to 100
4 | CO[C@H]1CC[C@@H](Nc2nc(-c3nccn3C)nn3cc(-c4ccn(C(C)C)n4)c(-c4ccccc4)c23)C1 (racemic) [Compound 18, rac 6-(1-Isopropyl-1H-pyrazol-3-yl)-N-((1R,3S)-3-methoxycyclopentyl)-2-(1-methyl-1H-imidazol-2-yl)-5-phenylpyrrolo[2,1-f][1,2,4]triazin-4-amine hydrochloride] | > 1 | C (50-84% inhibition) | 25 to 49
5 | COCC1CCN(c2nc(-c3nccn3C)nn3cc(-c4ccn(C(C)C)n4)c(-c4ccccc4)c23)C1.Cl (racemic) [Compound 19, rac 6-(1-Isopropyl-1H-pyrazol-3-yl)-4-(3-(methoxymethyl)pyrrolidin-1-yl)-2-(1-methyl-1H-imidazol-2-yl)-5-phenylpyrrolo[2,1-f][1,2,4]triazine hydrochloride salt] | > 1 | 0 (0% inhibition) | 75 to 100
6 | COC[C@@H]1CC[C@@H]1CNc1nc(-c2nccn2C)nn2cc(-c3ccn(C(C)C)n3)c(-c3ccccc3)c12 (racemic) [Compound 20, rac 6-(1-Isopropyl-1H-pyrazol-3-yl)-N-(((1S,2R)-2-(methoxymethyl)cyclobutyl)methyl)-2-(1-methyl-1H-imidazol-2-yl)-5-phenylpyrrolo[2,1-f][1,2,4]triazin-4-amine] | > 1 | D (85-100% inhibition) | 75 to 100
7 | COC1CCCN(c2nc(-c3nccn3C)nn3cc(-c4ccn(C(C)C)n4)c(-c4ccccc4)c23)C1 (racemic) [Compound 21, rac 6-(1-Isopropyl-1H-pyrazol-3-yl)-4-(3-methoxypiperidin-1-yl)-2-(1-methyl-1H-imidazol-2-yl)-5-phenylpyrrolo[2,1-f][1,2,4]triazine] | > 1 | 0 (0% inhibition) | 1 to 24
8 | COCCNc1nc(-c2nccn2C)nn2cc(-c3ccn(C(C)C)n3)c(C)c12 [Compound 5, 6-(1-Isopropyl-1H-pyrazol-3-yl)-N-(2-methoxyethyl)-5-methyl-2-(1-methyl-1H-imidazol-2-yl)pyrrolo[2,1-f][1,2,4]triazin-4-amine] | > 1 | 0 (0% inhibition) | 0
9 | COc1cccc(Nc2nc(-c3nccn3C)nn3cc(-c4ccn(C(C)C)n4)c(C)c23)n1 [Compound 7, 6-(1-Isopropyl-1H-pyrazol-3-yl)-N-(6-methoxypyridin-2-yl)-5-methyl-2-(1-methyl-1H-imidazol-2-yl)pyrrolo[2,1-f][1,2,4]triazin-4-amine] | > 1 | 0 (0% inhibition) | 1 to 24
10 | CC(C)n1ccc(-c2cn3nc(-c4nccn4C)nc(O)c3c2-c2ccccc2)n1 [Compound 17, 6-(1-Isopropyl-1H-pyrazol-3-yl)-2-(1-methyl-1H-imidazol-2-yl)-5-phenylpyrrolo[2,1-f][1,2,4]triazin-4-ol] | > 1 | A (1-25% inhibition) | 50 to 74
11 | Cc1ccn2nc(-c3nccn3C)nc(N)c12.O=C(O)C(F)(F)F [Compound 37, 5-Methyl-2-(1-methyl-1H-imidazol-2-yl)pyrrolo[2,1-f][1,2,4]triazin-4-amine trifluoroacetic acid salt] | > 1 | 0 (0% inhibition) | 0
12 | Cn1ccnc1-c1nc(O)c2c(-c3ccccc3)ccn2n1 [Compound 39, 2-(1-Methyl-1H-imidazol-2-yl)-5-phenylpyrrolo[2,1-f][1,2,4]triazin-4-ol] | > 1 | 0 (0% inhibition) | 0
13 | Cc1c(-c2ccn(C(C)C)n2)cn2nc(-c3nccn3C)nc(Nc3noc(C4CC4)n3)c12 [Compound 75, 5-Cyclopropyl-N-(6-(1-isopropyl-1H-pyrazol-3-yl)-5-methyl-2-(1-methyl-1H-imidazol-2-yl)pyrrolo[2,1-f][1,2,4]triazin-4-yl)-1,2,4-oxadiazol-3-amine] | > 1 | B (26-49% inhibition) | 1 to 24
14 | Cc1c(-c2ccn(C(C)C)n2)cn2nc(-c3nccn3C)nc(Nc3cnn(C(C)C)n3)c12 [Compound 77, 6-(1-Isopropyl-1H-pyrazol-3-yl)-N-(2-isopropyl-2H-1,2,3-triazol-4-yl)-5-methyl-2-(1-methyl-1H-imidazol-2-yl)pyrrolo[2,1-f][1,2,4]triazin-4-amine] | > 1 | D* (85-100% activation) | 1 to 24

The next lines start with results.

Row | IC50 [1] [µM] | SMILES | % inh of Erk1/2 phosphorylation in Panc-1 (Erk1/2 phosphorylation) | inhibition (IL6) [%]
15 | > 1 | CO[C@H]1CC[C@@H](Nc2nc(-c3nccn3C)nn3cc(-c4ccn(C(C)C)n4)c(C)c23)C1 (racemic) [Compound 1, rac 6-(1-Isopropyl-1H-pyrazol-3-yl)-N-((1R,3S)-3-methoxycyclopentyl)-5-methyl-2-(1-methyl-1H-imidazol-2-yl)pyrrolo[2,1-f][1,2,4]triazin-4-amine] | 0 (0% inhibition) | 75 to 100
16 | 0.51 to 1 | COc1cccc(-c2cn3nc(-c4nccn4C)nc(N[C@@H]4CC[C@@H](OC)C4)c3c2-c2ccccc2)c1Cl.Cl (racemic) [Compound 34, rac 6-(2-Chloro-3-methoxyphenyl)-N-((1R,3R)-3-methoxycyclopentyl)-2-(1-methyl-1H-imidazol-2-yl)-5-phenylpyrrolo[2,1-f][1,2,4]triazin-4-amine hydrochloride] | D (85-100% inhibition) | 75 to 100
17 | 0.15 to 0.5 | COc1cccc(-c2cn3nc(-c4nccn4C)nc(N[C@@H]4CC[C@@H](OC)C4)c3c2-c2ccccc2)c1C (racemic) [Compound 270, rac 6-(3-Methoxy-2-methylphenyl)-N-((1R,3R)-3-methoxycyclopentyl)-2-(1-methyl-1H-imidazol-2-yl)-5-phenylpyrrolo[2,1-f][1,2,4]triazin-4-amine] | D (85-100% inhibition) | 75 to 100
18 | 0.15 to 0.5 | COc1cccc(-c2cn3nc(-c4nccn4C)nc(N[C@@H]4CC[C@H](OC)C4)c3c2-c2ccccc2)c1C (racemic) [Compound 271, rac 6-(3-Methoxy-2-methylphenyl)-N-((1R,3S)-3-methoxycyclopentyl)-2-(1-methyl-1H-imidazol-2-yl)-5-phenylpyrrolo[2,1-f][1,2,4]triazin-4-amine] | D (85-100% inhibition) | 75 to 100
19 | 0.15 to 0.5 | COc1cc(Nc2nc(-c3nccn3C)nn3cc(-c4ccn(C(C)C)n4)c(-c4ccccc4)c23)ncn1 [Compound 22, 6-(1-Isopropyl-1H-pyrazol-3-yl)-N-(6-methoxypyrimidin-4-yl)-2-(1-methyl-1H-imidazol-2-yl)-5-phenylpyrrolo[2,1-f][1,2,4]triazin-4-amine] | 0 (0% inhibition) | 75 to 100
20 | < 0.15 | CCc1nc(Nc2nc(-c3nccn3C)nn3cc(-c4ccn(C(C)C)n4)c(C)c23)nn1C [Compound 76, N-(5-Ethyl-1-methyl-1H-1,2,4-triazol-3-yl)-6-(1-isopropyl-1H-pyrazol-3-yl)-5-methyl-2-(1-methyl-1H-imidazol-2-yl)pyrrolo[2,1-f][1,2,4]triazin-4-amine] | 0 (0% inhibition) | 25 to 49
21 | 0.15 to 0.5 | Cc1c(-c2ccn(C(C)C)n2)cn2nc(-c3nccn3C)nc(Nc3cn(C(C)C)nn3)c12 [Compound 78, N-(1-Isopropyl-1H-1,2,3-triazol-4-yl)-6-(1-isopropyl-1H-pyrazol-3-yl)-5-methyl-2-(1-methyl-1H-imidazol-2-yl)pyrrolo[2,1-f][1,2,4]triazin-4-amine] | D* (85-100% activation) | 25 to 49
